Columns and labels:
[1] = test system: intracellular amastigotes of L. panamensis (MHOM/CO/87/UA140-EGFP strain); test: In vitro antileishmanial activity on intracellular amastigotes (GFP, flow cytometry); format: cell-based, Leishmania (V) panamensis; conditions: for SI (Selectivity Index = LC50/EC50): LC50 U-937 / EC50 L. panamensis amastigotes; for EC50: Leishmania panamensis, U-937, 72 h, intracellular amastigotes in U-937 cells, 72 h exposure, mean ± SD, Probit
Experimental: Antileishmanial activity of compounds was determined according to the ability of the compound to reduce the infection by L. panamensis parasites. For this, the antileishmanial activity was tested on intracellular amastigotes of L. panamensis transfected with the green fluorescent protein gene (MHOM/CO/87/UA140-EGFP strain). Briefly, U-937 human cells at a density of 3 × 10^5 cells/mL in RPMI 1640 and 0.1 μg/mL of PMA (phorbol-12-myristate-13-acetate) were dispensed on 24-wells microplate and then infected with stationary phase growing L. panamensis promastigotes in 15:1 parasites per cell ratio. Plates were incubated at 34 °C and 5% CO2 for 3 h, and then cells were washed twice with phosphate buffer solution (PBS) to eliminate not internalized parasites. Fresh RPMI-1640 was added into each well (1 mL), and plates were incubated again. After 24 h of infection, the RPMI-1640 medium was replaced by fresh culture medium containing each compound at four serial dilutions (50, 12.5, 3.125 and 0.78 μg/mL) and plates were then incubated at 37 °C and 5% CO2 during 72 h, then, cells were removed from the bottom plate with 100 µL of EDTA/trypsin (250 mg) solution. The cells were centrifuged at 1100 rpm during 10 min at 4 °C, the supernatant was discarded, and cells were washed with 1 mL of cold PBS and centrifuged at 1100 rpm for 10 min at 4 °C. Cells were washed two times employing PBS, as previously, and after the last wash, the supernatant was discarded, and cells were suspended in 500 μL of PBS.
Cells were analyzed by flow cytometry employing a flow cytometer (FC 500MPL, Cytomics, Beckman Coulter. Pasadena, CA, USA) reading at 488 nm (exciting) and 525 nm (emitting) over an argon laser and counting 10,000 events. Infected cells were determined according to the events for green fluorescence (parasites). All determinations for each compound and standard drug were carried out by triplicate, in two experiments. Infected cells exposed to control drug (amphotericin B) were used as the control for antileishmanial activity (positive control), while infected cells incubated in the absence of any compound or drug were used as another control for infection (negative control). Nonspecific fluorescence was corrected by subtracting the fluorescence of unstained cells. Determinations were done by triplicate in at least two independent experiments.
The antileishmanial activity was determined according to the reduction of the percentage of fluorescent parasites determined according to the median fluorescence intensity (MFI) obtained for each experimental condition by cytometry. The parasite values for each concentration of compound were calculated by Equation (3), where the % of parasites in control well, corresponds to 100% of parasites:(3) % Parasites=(MFI exposed parasites/MFI unexposed parasites)×100
Then, the inhibition percentage was calculated with Equation (4):(4) % Inhibitors of Parasites=100−(% Parasites)
Results of antileishmanial activities were expressed as the median effective concentrations (EC50) measured by Probit method.

[2] = Cytotoxic activity, MTT method; format: cell-based; conditions: human, LC50
Experimental: Cytotoxicity of the compounds was evaluated on human monocytes (U-937 ATCC CRL-1593.2) in an exponential growth phase and adjusted at 1 × 10^5 cells/mL in RPMI-1640 enriched with 10% fetal bovine serum (FBS). One hundred microliters of cell suspension were dispensed in each well of a 96-wells microplate, and then 100 μL of 200-50-12.5 and 3.125 μg/mL concentration of each compound or standard drug (amphotericin B) were added dissolved in PBS with 0.5% DMSO. Cell exposed to compounds or standard drugs were incubated 72 h at 37 °C and 5% of CO2. Cytotoxic activity of each compound was determined according to the effect on the cell viability by the MTT microenzymatic method in which 3-(4,5-dimethylthiazol-2-yl)-2,5-diphenyltetrazolium bromide is reduced to a purple formazan product by mitochondrial enzyme succinate dehydrogenase. Thus, 10 μL/well of MTT solution (5 mg/mL) was added to each well of exposed and unexposed cells, and plates were incubated at 37 °C, 5% CO2 during 3 h. The reaction was stopped by adding 100 μL/well of isopropanol with 50% and 10% of SDS (sodium dodecyl sulfate). The concentration of formazan was determined spectrophotometrically at 570 nm (Varioskan, Thermo, Waltham, MA, USA) and intensity of color (absorbance) was registered as O.D. Cells exposed to control drug (amphotericin B) were used as control for toxicity (positive control) while cell incubated in the absence of any compound or drug were used as control for viability (negative control). Non-specific absorbance was corrected by subtracting absorbance (O.D) of the blank. Determinations were done by triplicate in at least two independent experiments.
Cytotoxicity was determined according to viability and mortality percentages obtained for each experimental condition (synthesized compounds, amphotericin B, and culture medium). Results were expressed as the mean lethal concentrations (LC50), the concentration necessary to kill 50% of cells, calculated by the parametric method of linear regression that permits doses-response analysis (Probit analysis).
Initially, viability percentages were calculated by Equation (1), where the O.D of control well, corresponds to 100% of viability:(1) % Viability=(O.D. exposed cells/O.D. unexposed cells)×100
Then, the percentage of cell growth inhibition was calculated using Equation (2):(2) % Inhibition =100−(% Viability)
The toxicity was defined according to LC50 values, using the follow scale: Toxic; LC50 < 100 μM; moderately toxic; LC50 > 100 μM and < 200 μM and potentially nontoxic; LC50 > 200 μM.

## N#CC1=Cc2ccccc2SC1 [Compound 8a, 2H-Thiochromene-3-carbonitrile]
[1]
  SI (Selectivity Index = LC50/EC50): 0.7
[2]
  CC50 at 72 h: 4 ± 0.6 µM

## CCCCOC(=O)C1CC(=O)c2ccccc2S1 (centres unmarked) [Compound 22b, Butyl 4-oxo-thiochromane-2-carboxylate]
[1]
  SI (Selectivity Index = LC50/EC50): < 1.2
  EC50: > 189 µM
[2]
  CC50 at 72 h: 231 ± 44.5 µM

## O=CC1=Cc2ccccc2SC1c1ccccc1 (centres unmarked) [Compound 13a, 2-Phenyl-2H-thiochromene-3-carbaldehyde]
[1]
  SI (Selectivity Index = LC50/EC50): < 2.3
  EC50: > 23.8 µM
[2]
  CC50 at 72 h: 54.7 ± 3.2 µM

## CCCCCCCCCCCCNC(=O)C1CC(=O)c2ccccc2S1 (centres unmarked) [Compound 24b, N-dodecyl-4-oxo-thiochromane-2-carboxamide]
[1]
  SI (Selectivity Index = LC50/EC50): < 1.8
  EC50: > 80 µM
[2]
  CC50 at 72 h: 148 ± 45.4 µM

## O=CC1=Cc2ccccc2SC1c1ccc(Cl)cc1 (centres unmarked) [Compound 13c, 2-(4-Chlorophenyl)-2H-thiochromene-3-carbaldehyde]
[1]
  SI (Selectivity Index = LC50/EC50): 4.3
  EC50: 37 ± 5.6 µM
[2]
  CC50 at 72 h: 161 ± 27.9 µM

## O=C1CC(C(=O)O)Sc2ccccc21 (racemic) [Compound 20a, 4-Oxothiochromane-2-carboxylic acid]
[1]
  SI (Selectivity Index = LC50/EC50): 0.3
  EC50: 414 ± 58.5 µM
[2]
  CC50 at 72 h: 133 ± 67.7 µM

## C[C@@H]1[C@H](O)[C@@H](C)/C=C/C=C/C=C/C=C/C=C/C=C/C=C/[C@H](O[C@@H]2O[C@H](C)[C@@H](O)[C@H](N)[C@@H]2O)C[C@@H]2O[C@](O)(C[C@@H](O)C[C@@H](O)[C@H](O)CC[C@@H](O)C[C@@H](O)CC(=O)O[C@H]1C)C[C@H](O)[C@H]2C(=O)O [Amphotericin B, reference compound]
[1]
  EC50: 0.05 µM
[2]
  CC50 at 72 h: 56.8 µM

## O=C(C1=Cc2ccccc2SC1c1ccccc1)C(F)(F)F (centres unmarked) [Compound 8e]
[1]
  SI (Selectivity Index = LC50/EC50): 0.7
  EC50: 29.6 ± 6.2 µM
[2]
  CC50 at 72 h: 21.2 ± 3.4 µM

## COC(=O)C1CSc2ccccc2C1=O (centres unmarked) [Compound 9b + 10b, Methyl 4-oxo-thiochromane-3-carboxylate]
[1]
  SI (Selectivity Index = LC50/EC50): 3.6
  EC50: 134 ± 27 µM
[2]
  CC50 at 72 h: 485 ± 45.4 µM

## CCOC(=O)C1CC(=O)c2ccccc2S1 (centres unmarked) [Compound 22a, Ethyl 4-oxo-thiochromane-2-carboxylate]
[1]
  SI (Selectivity Index = LC50/EC50): < 3.1
  EC50: > 68.5 µM
[2]
  CC50 at 72 h: 211.1 ± 0.7 µM

## O=C(C1=Cc2ccccc2SC1c1ccccc1)c1ccccc1 (centres unmarked) [Compound 15a, Phenyl(2-phenyl-2H-thiochromen-3-yl)methanone]
[1]
  EC50: 43.9 ± 11.6 µM
[2]
  CC50 at 72 h: > 609 µM

## CCCCCC1Sc2ccccc2C=C1C(C)=O (centres unmarked) [Compound 8d, 1-(2-Pentyl-2H-thiochromen-3-yl)ethan-1-one]
[1]
  SI (Selectivity Index = LC50/EC50): 3.1
[2]
  CC50 at 72 h: 25.7 ± 4.6 µM

## CCCCCCNC(=O)C1CC(=O)c2ccccc2S1 (centres unmarked) [Compound 24a, N-hexyl-4-oxo-thiochromane-2-carboxamide]
[1]
  SI (Selectivity Index = LC50/EC50): 0.7
  EC50: 216 ± 2.5 µM
[2]
  CC50 at 72 h: 157 ± 9.7 µM

## N#CC1CSc2ccccc2C1=O (centres unmarked) [Compound 9a, 4-Oxo-thiochromane-3-carbonitrile]
[1]
  SI (Selectivity Index = LC50/EC50): 7.2
  EC50: 108 ± 34.3 µM
[2]
  CC50 at 72 h: 770 ± 49.7 µM

Reference: paper PMC7094215, “Synthesis and Evaluation of Antileishmanial and Cytotoxic Activity of Benzothiopyrane Derivatives” (Molecules, 2020)
